Results published in JP2014074001A, “抗精神病剤” (KONAN MEDICAL CO Ltd, priority 2012, dated 2014).

Assays:
[1] = tested on: fasting blood glucose [空腹時血糖値]; test: Example 1: fasting blood glucose in high-fat-diet ICR mice, olanzapine and β-glucan; assay type: in vivo, mouse; conditions: male ICR mice, 4 weeks, 16 h fast, tail vein, olanzapine 3 mg/kg/day p.o. and/or β-glucan 5 v/v% in drinking water, mean ± SD, high-fat control 84.4±14.65, normal diet control 72.6±10.49
[2] = tested on: fasting blood glucose [空腹時血糖値]; test: Example 2: fasting blood glucose in high-fat-diet ICR mice, clozapine and β-glucan; assay type: in vivo, mouse; conditions: male ICR mice, 4 weeks, 16 h fast, tail vein, clozapine 5 mg/kg/day p.o. with or without β-glucan 5 v/v% in drinking water

Row | SMILES | fasting blood glucose, mean [1] [mg/dL] | fasting blood glucose [2] [mg/dL]
1 | Cc1cc2c(s1)Nc1ccccc1N=C2N1CCN(C)CC1 [オランザピン] | 124.8 ± 16.44 | 
2 | CN1CCN(C2=Nc3cc(Cl)ccc3Nc3ccccc32)CC1 [クロザピン] |  | 124.0 ± 8.91
